± gives the expanded uncertainty stated by the source.

Drawing on the NIST ThermoML archive (doi:10.1016/j.fluid.2014.11.020), this text covers activity coefficient for 38 compounds.

The nature of the series: activity coefficient (dimensionless); of the first substance listed, at infinite dilution; xn = mol fraction of the nth substance listed. The note with it: Liquid, Chromatography, x1 = 0.

In the case of `CCCCCCCCC` [nonane] + CCCCCCCCn1cc[n+](COCCC)c1C.N#C[N-]C#N, the activity coefficient stood at 14.9 ± 1 (323.15 K), 13.6 ± 0.93 (333.15 K) and 13.1 ± 0.9 (343.15 K).
Taken in the same sequence, the figures for `CCCCCCCCC` [nonane] + CCCCCCCCn1cc[n+](COCCC)c1C.O=S(=O)([N-]S(=O)(=O)C(F)(F)F)C(F)(F)F were 7.93 ± 0.54, 7.42 ± 0.51 and 6.93 ± 0.47.
For `CCCCCCCCC` [nonane] + CCCCCCCCn1cc[n+](COCCCOC[n+]2ccn(CCCCCCCC)c2C)c1C.N#C[N-]C#N.N#C[N-]C#N the same measures were 17.1 ± 1.2, 15.8 ± 1.1 and 14.3 ± 0.98.
For the compound `CCCCCCCCC` [nonane] + CCCCCCCCn1cc[n+](COCCCOC[n+]2ccn(CCCCCCCC)c2C)c1C.O=S(=O)([N-]S(=O)(=O)C(F)(F)F)C(F)(F)F.O=S(=O)([N-]S(=O)(=O)C(F)(F)F)C(F)(F)F, the activity coefficient by setting is: (323.15 K) 8.26 ± 0.56; (333.15 K) 7.45 ± 0.51; (343.15 K) 7.1 ± 0.48.
Taken in the same sequence, the figures for `CCCCCCCCC` [nonane] + CCCOC[n+]1ccc(N(C)C)cc1.O=S(=O)([N-]S(=O)(=O)C(F)(F)F)C(F)(F)F were 32.8 ± 2.2, 30.6 ± 2.1 and 27.1 ± 1.9.
Taken in the same sequence, the figures for `CCCCCCCCC` [nonane] + CCCOC[n+]1ccn(C)c1.F[B-](F)(F)F were 553 ± 38, 384 ± 26 and 337 ± 23.
For `CCCCCCCCC` [nonane] + CCCOC[n+]1ccn(C)c1.N#C[N-]C#N, the activity coefficient reads like this: (323.15 K) 263 ± 18; (333.15 K) 234 ± 16; (343.15 K) 197 ± 14.
For `CCCCCCCCC` [nonane] + CCCOC[n+]1ccn(C)c1.O=S(=O)([N-]S(=O)(=O)C(F)(F)F)C(F)(F)F the same measures were 52.4 ± 3.6, 45.9 ± 3.1 and 40.5 ± 2.8.
For `CCCCCCCCC` [nonane] + CCCOC[n+]1ccn(Cc2ccccc2)c1.F[B-](F)(F)F the same measures were 179 ± 12, 164 ± 11 and 126 ± 8.7.
Taken in the same sequence, the figures for `CCCCCCCCC` [nonane] + CCCOC[n+]1ccn(Cc2ccccc2)c1.N#C[N-]C#N were 110 ± 7.6, 93.6 ± 6.4 and 76.2 ± 5.2.
Turning to `CCCCCCCCC` [nonane] + CCCOC[n+]1ccn(Cc2ccccc2)c1.O=S(=O)([N-]S(=O)(=O)C(F)(F)F)C(F)(F)F, the activity coefficient is, setting by setting: (323.15 K) 23.3 ± 1.6; (333.15 K) 19.1 ± 1.3; (343.15 K) 17.5 ± 1.2.
For `CCCCCCCCC` [nonane] + CN(C)c1cc[n+](COCCCOC[n+]2ccc(N(C)C)cc2)cc1.O=S(=O)([N-]S(=O)(=O)C(F)(F)F)C(F)(F)F.O=S(=O)([N-]S(=O)(=O)C(F)(F)F)C(F)(F)F the same measures were 60.7 ± 4.2, 52 ± 3.6 and 47.2 ± 3.2.
Turning to `CCCCCCCCC` [nonane] + Cn1cc[n+](COCCCOC[n+]2ccn(C)c2)c1.O=S(=O)([N-]S(=O)(=O)C(F)(F)F)C(F)(F)F.O=S(=O)([N-]S(=O)(=O)C(F)(F)F)C(F)(F)F, the activity coefficient stood at 105 ± 7.2 (323.15 K), 96.7 ± 6.6 (333.15 K) and 72.4 ± 5 (343.15 K).
For `CCCCCCCCC` [nonane] + N#C[N-]C#N.N#C[N-]C#N.c1ccc(Cn2cc[n+](COCCCOC[n+]3ccn(Cc4ccccc4)c3)c2)cc1 the same measures were 335 ± 23, 264 ± 18 and 226 ± 16.
Taken in the same sequence, the figures for `CCCCCCCC` [octane] + CCCCCCCCn1cc[n+](COCCC)c1C.N#C[N-]C#N were 11 ± 0.75, 10.1 ± 0.69 and 9.94 ± 0.68.
Taken in the same sequence, the figures for `CCCCCCCC` [octane] + CCCCCCCCn1cc[n+](COCCC)c1C.O=S(=O)([N-]S(=O)(=O)C(F)(F)F)C(F)(F)F were 5.76 ± 0.39, 5.48 ± 0.37 and 5.17 ± 0.35.
On to `CCCCCCCC` [octane] + CCCCCCCCn1cc[n+](COCCCOC[n+]2ccn(CCCCCCCC)c2C)c1C.N#C[N-]C#N.N#C[N-]C#N, for which the activity coefficient amounted to 12.1 ± 0.82 (323.15 K), 11.4 ± 0.78 (333.15 K) and 11.3 ± 0.77 (343.15 K).
For `CCCCCCCC` [octane] + CCCCCCCCn1cc[n+](COCCCOC[n+]2ccn(CCCCCCCC)c2C)c1C.O=S(=O)([N-]S(=O)(=O)C(F)(F)F)C(F)(F)F.O=S(=O)([N-]S(=O)(=O)C(F)(F)F)C(F)(F)F, the activity coefficient was determined as 5.97 ± 0.41 (323.15 K), 5.45 ± 0.37 (333.15 K) and 5.08 ± 0.35 (343.15 K).
As to `CCCCCCCC` [octane] + CCCOC[n+]1ccc(N(C)C)cc1.O=S(=O)([N-]S(=O)(=O)C(F)(F)F)C(F)(F)F, the activity coefficient is 22.2 ± 1.5 (323.15 K), 20.5 ± 1.4 (333.15 K) and 17.7 ± 1.2 (343.15 K).
As to `CCCCCCCC` [octane] + CCCOC[n+]1ccn(C)c1.F[B-](F)(F)F, the activity coefficient runs as follows: (323.15 K) 292 ± 20; (333.15 K) 213 ± 15; (343.15 K) 182 ± 13.
For `CCCCCCCC` [octane] + CCCOC[n+]1ccn(C)c1.N#C[N-]C#N the same measures were 155 ± 11, 135 ± 9.2 and 112 ± 7.7.
`CCCCCCCC` [octane] + CCCOC[n+]1ccn(C)c1.O=S(=O)([N-]S(=O)(=O)C(F)(F)F)C(F)(F)F: the activity coefficient turned out to be 34.1 ± 2.3 (323.15 K), 29.7 ± 2 (333.15 K) and 26.4 ± 1.8 (343.15 K).
Turning to `CCCCCCCC` [octane] + CCCOC[n+]1ccn(Cc2ccccc2)c1.N#C[N-]C#N, the activity coefficient is, setting by setting: (323.15 K) 70.1 ± 4.8; (333.15 K) 61.5 ± 4.2; (343.15 K) 57.8 ± 4.
For `CCCCCCCC` [octane] + CCCOC[n+]1ccn(Cc2ccccc2)c1.O=S(=O)([N-]S(=O)(=O)C(F)(F)F)C(F)(F)F the same measures were 16.1 ± 1.1, 12.9 ± 0.88 and 12.5 ± 0.85.
Taken in the same sequence, the figures for `CCCCCCCC` [octane] + CN(C)c1cc[n+](COCCCOC[n+]2ccc(N(C)C)cc2)cc1.O=S(=O)([N-]S(=O)(=O)C(F)(F)F)C(F)(F)F.O=S(=O)([N-]S(=O)(=O)C(F)(F)F)C(F)(F)F were 37.9 ± 2.6, 34.5 ± 2.4 and 30 ± 2.
For `CCCCCCCC` [octane] + Cn1cc[n+](COCCCOC[n+]2ccn(C)c2)c1.O=S(=O)([N-]S(=O)(=O)C(F)(F)F)C(F)(F)F.O=S(=O)([N-]S(=O)(=O)C(F)(F)F)C(F)(F)F the same measures were 60.4 ± 4.1, 60.6 ± 4.2 and 38.4 ± 2.6.
Take `CCCC(C)=O` [pentan-2-one] + CCCCCCCCn1cc[n+](COCCC)c1C.N#C[N-]C#N: the activity coefficient came out at 0.95 ± 0.06 (323.15 K), 0.96 ± 0.06 (333.15 K) and 0.98 ± 0.06 (343.15 K).
For `CCCC(C)=O` [pentan-2-one] + CCCCCCCCn1cc[n+](COCCC)c1C.O=S(=O)([N-]S(=O)(=O)C(F)(F)F)C(F)(F)F the same measures were 0.48 ± 0.04, 0.48 ± 0.04 and 0.48 ± 0.04.
Turning to `CCCC(C)=O` [pentan-2-one] + CCCCCCCCn1cc[n+](COCCCOC[n+]2ccn(CCCCCCCC)c2C)c1C.N#C[N-]C#N.N#C[N-]C#N, the activity coefficient runs as follows: (323.15 K) 0.8 ± 0.05; (333.15 K) 0.8 ± 0.05; (343.15 K) 0.81 ± 0.05.
For `CCCC(C)=O` [pentan-2-one] + CCCCCCCCn1cc[n+](COCCCOC[n+]2ccn(CCCCCCCC)c2C)c1C.O=S(=O)([N-]S(=O)(=O)C(F)(F)F)C(F)(F)F.O=S(=O)([N-]S(=O)(=O)C(F)(F)F)C(F)(F)F, the activity coefficient runs as follows: (323.15 K) 0.29 ± 0.03; (333.15 K) 0.29 ± 0.03; (343.15 K) 0.3 ± 0.03.
`CCCC(C)=O` [pentan-2-one] + CCCOC[n+]1ccc(N(C)C)cc1.O=S(=O)([N-]S(=O)(=O)C(F)(F)F)C(F)(F)F: the activity coefficient by setting is: (323.15 K) 0.75 ± 0.05; (333.15 K) 0.78 ± 0.05; (343.15 K) 0.78 ± 0.05.
Take `CCCC(C)=O` [pentan-2-one] + CCCOC[n+]1ccn(C)c1.F[B-](F)(F)F: the activity coefficient runs as follows: (323.15 K) 3.32 ± 0.23; (333.15 K) 3.33 ± 0.23; (343.15 K) 3.31 ± 0.23.
Taken in the same sequence, the figures for `CCCC(C)=O` [pentan-2-one] + CCCOC[n+]1ccn(C)c1.N#C[N-]C#N were 2.24 ± 0.15, 2.27 ± 0.15 and 2.32 ± 0.16.
For `CCCC(C)=O` [pentan-2-one] + CCCOC[n+]1ccn(C)c1.O=S(=O)([N-]S(=O)(=O)C(F)(F)F)C(F)(F)F the same measures were 0.72 ± 0.05, 0.72 ± 0.05 and 0.73 ± 0.05.
For `CCCC(C)=O` [pentan-2-one] + CCCOC[n+]1ccn(Cc2ccccc2)c1.F[B-](F)(F)F the same measures were 1.79 ± 0.12, 1.76 ± 0.12 and 1.82 ± 0.12.
On to `CCCC(C)=O` [pentan-2-one] + CCCOC[n+]1ccn(Cc2ccccc2)c1.N#C[N-]C#N, for which the activity coefficient (323.15 K) was found to be 1.45 ± 0.1, the activity coefficient (333.15 K) turned out to be 1.51 ± 0.1 and the activity coefficient (343.15 K) turned out to be 1.51 ± 0.1.
`CCCC(C)=O` [pentan-2-one] + CCCOC[n+]1ccn(Cc2ccccc2)c1.O=S(=O)([N-]S(=O)(=O)C(F)(F)F)C(F)(F)F: the activity coefficient was determined as 0.46 ± 0.04 (323.15 K), 0.42 ± 0.04 (333.15 K) and 0.4 ± 0.03 (343.15 K).
Taken in the same sequence, the figures for `CCCC(C)=O` [pentan-2-one] + CN(C)c1cc[n+](COCCCOC[n+]2ccc(N(C)C)cc2)cc1.O=S(=O)([N-]S(=O)(=O)C(F)(F)F)C(F)(F)F.O=S(=O)([N-]S(=O)(=O)C(F)(F)F)C(F)(F)F were 0.69 ± 0.05, 0.7 ± 0.05 and 0.71 ± 0.05.
